Experiment: solvent given as SMILES

CCC(CC)CO
solvation free energy, 298 K (in O): -3.73 kcal/mol

Cc1cc(NS(=O)(=O)c2ccc(N)cc2)no1
solvation free energy, 298 K (in O): -17.8 kcal/mol

CCC(=O)CC
solvation free energy, 298 K (in CC(C)CCCC(C)CCCC(C)CCCCC(C)CCCC(C)CCCC(C)C): -3.73 kcal/mol
solvation free energy, 298 K (in CCCCCCC): -4.04 kcal/mol
solvation free energy, 298 K (in CCCCCCCCC=CCCCCCCCC(=O)OCC(COC(=O)CCCCCCCC=CCCCCCCCC)OC(=O)CCCCCCCC=CCCCCCCCC): -4.31 kcal/mol
solvation free energy, 298 K (in CCCCCCCCCCCCCCCC): -3.73 kcal/mol
solvation free energy, 298 K (in CCCCCCCCO): -4.34 kcal/mol
solvation free energy, 298 K (in CN1CCCC1=O): -4.76 kcal/mol
solvation free energy, 298 K (in CO): -4.96 kcal/mol
solvation free energy, 298 K (in O): -3.33 kcal/mol
solvation free energy, 298 K (in O=CN1CCOCC1): -4.45 kcal/mol
solvation free energy, 298 K (in [2H]O[2H]): -3.27 kcal/mol

CCCCC(C)(C)O
solvation free energy, 298 K (in CCCCCCCC): -5.29 kcal/mol
solvation free energy, 298 K (in CCCCCCCCCC): -5.22 kcal/mol

CCCCCCCCCCCCCCCCCCCCCCCCCC
solvation free energy, 298 K (in CC(=O)N(C)C): -17.6 kcal/mol
solvation free energy, 298 K (in CC(C)(C)O): -15.8 kcal/mol
solvation free energy, 298 K (in CN(C)C=O): -17.8 kcal/mol
solvation free energy, 298 K (in O): 5.59 kcal/mol

CCCCCO
solvation free energy, 298 K (in Brc1ccccc1): -5.42 kcal/mol
solvation free energy, 298 K (in C1CCOC1): -6.61 kcal/mol
solvation free energy, 298 K (in CC#N): -5.85 kcal/mol
solvation free energy, 298 K (in CC(C)(C)O): -6.96 kcal/mol
solvation free energy, 298 K (in CC(C)CC(C)(C)C): -4.37 kcal/mol
solvation free energy, 298 K (in CC(C)CO): -6.85 kcal/mol
solvation free energy, 298 K (in CC(C)O): -6.83 kcal/mol
solvation free energy, 298 K (in CCCCCC): -4.62 kcal/mol
solvation free energy, 298 K (in CCCCCCC): -4.48 kcal/mol
solvation free energy, 298 K (in CCCCCCCC): -4.27 kcal/mol
solvation free energy, 298 K (in CCCCCCCCCC): -4.16 kcal/mol
solvation free energy, 298 K (in CCCCCCCCCCCCCCCC): -4.08 kcal/mol
solvation free energy, 298 K (in CCCCCCCCCCO): -6.39 kcal/mol
solvation free energy, 298 K (in CCCCCCCCO): -6.37 kcal/mol
solvation free energy, 298 K (in CCCCCCO): -6.68 kcal/mol
solvation free energy, 298 K (in CCCCO): -6.77 kcal/mol
solvation free energy, 298 K (in CCCO): -6.78 kcal/mol
solvation free energy, 298 K (in CO): -6.84 kcal/mol
solvation free energy, 298 K (in Cc1cccc(C)c1): -5.21 kcal/mol
solvation free energy, 298 K (in Cc1ccccc1C): -5.21 kcal/mol
solvation free energy, 298 K (in Clc1ccccc1): -5.48 kcal/mol
solvation free energy, 298 K (in NC=O): -5.65 kcal/mol
solvation free energy, 298 K (in O): -4.56 kcal/mol
solvation free energy, 298 K (in [2H]O[2H]): -4.61 kcal/mol

C=CCCCCCCC
solvation free energy, 298 K (in CCCCCCCCO): -5.21 kcal/mol
solvation free energy, 298 K (in O): 2.06 kcal/mol

CCN(N=O)C(C)C
solvation free energy, 298 K (in O): -5.46 kcal/mol

CCC=CCC
solvation free energy, 298 K (in C=CCCCCCCCCCCCCCC): -3.51 kcal/mol
solvation free energy, 298 K (in O): 1.62 kcal/mol

Clc1cc(Cl)c(Cl)c(Cl)c1
solvation free energy, 298 K (in CCCCCCCCO): -7.57 kcal/mol
solvation free energy, 298 K (in O): -1.62 kcal/mol

CN
solvation free energy, 298 K (in CCCCCC): -1.64 kcal/mol
solvation free energy, 298 K (in CCCCO): -2.89 kcal/mol
solvation free energy, 298 K (in CN(C)C=O): -2.66 kcal/mol
solvation free energy, 298 K (in ClC(Cl)(Cl)Cl): -2.33 kcal/mol
solvation free energy, 298 K (in ClC(Cl)Cl): -3.16 kcal/mol
solvation free energy, 298 K (in O): -4.56 kcal/mol

CC(=O)Nc1ccccc1
solvation free energy, 298 K (in C1COCCO1): -11.8 kcal/mol
solvation free energy, 298 K (in O): -9.79 kcal/mol

OCCCO
solvation free energy, 298 K (in O): -9.96 kcal/mol

CCC(C)CCCC(C)CCCC(C)CCCC(C)C (centres undefined)
solvation free energy, 298 K (in O): 4.83 kcal/mol

CCCC(=O)OCC
solvation free energy, 298 K (in CCCCCCCC): -4.69 kcal/mol
solvation free energy, 298 K (in CCCCCCCCCCCCCCCC): -4.54 kcal/mol
solvation free energy, 298 K (in CCCCCCCCO): -4.86 kcal/mol
solvation free energy, 298 K (in CN1CCCC1=O): -4.9 kcal/mol
solvation free energy, 298 K (in O): -2.52 kcal/mol
solvation free energy, 298 K (in O=CN1CCOCC1): -4.61 kcal/mol
solvation free energy, 298 K (in [2H]O[2H]): -2.59 kcal/mol

CN(Cc1ccccc1)N=O
solvation free energy, 298 K (in O): -7.03 kcal/mol

COC(F)(F)C(Cl)Cl
solvation free energy, 298 K (in O): -1.12 kcal/mol

Cc1ccc(C2(C)CCCC2(C)C)cc1 (centres undefined)
solvation free energy, 298 K (in O): -0.61 kcal/mol

CC(C)C(C)c1ccc(CC(=O)O)cc1 (centres undefined)
solvation free energy, 298 K (in O): -7.99 kcal/mol

CCC(C)(C)C(=O)OC1CC(C)C=C2C=CC(C)C(CCC3CC(O)CC(=O)O3)C21 (centres undefined)
solvation free energy, 298 K (in CC(=O)OC(C)C): -25 kcal/mol
solvation free energy, 298 K (in CC(=O)OCC(C)C): -24.9 kcal/mol
solvation free energy, 298 K (in CCC(C)O): -25.1 kcal/mol
solvation free energy, 298 K (in CCC(C)OC(C)=O): -24.9 kcal/mol
solvation free energy, 298 K (in CCCCCCCCO): -24.8 kcal/mol
solvation free energy, 298 K (in CCCCCCO): -25 kcal/mol
solvation free energy, 298 K (in CCCCCO): -25 kcal/mol
solvation free energy, 298 K (in CCCCO): -25.1 kcal/mol
solvation free energy, 298 K (in CCCCOC(C)=O): -25 kcal/mol
solvation free energy, 298 K (in CCCO): -25.1 kcal/mol
solvation free energy, 298 K (in CCCOC(C)=O): -25 kcal/mol
solvation free energy, 298 K (in CCO): -25.1 kcal/mol
solvation free energy, 298 K (in CCOC(C)=O): -25.1 kcal/mol
solvation free energy, 298 K (in COC(C)=O): -25.1 kcal/mol

Cc1ccc(C(C)C)c(O)c1
solvation free energy, 298 K (in CCCO): -10.2 kcal/mol
solvation free energy, 298 K (in CCO): -10.3 kcal/mol
solvation free energy, 298 K (in CO): -10.3 kcal/mol
solvation free energy, 298 K (in O): -5.81 kcal/mol

FCCl
solvation free energy, 298 K (in O): -0.77 kcal/mol

ClCCBr
solvation free energy, 298 K (in O): -1.95 kcal/mol

O=C1NC(=O)C(c2ccccc2)(c2ccccc2)N1
solvation free energy, 298 K (in O): -16.7 kcal/mol

ClCc1ccccc1
solvation free energy, 298 K (in C1COCCO1): -7.23 kcal/mol
solvation free energy, 298 K (in CC(C)(C)O): -6.07 kcal/mol
solvation free energy, 298 K (in CC(C)O): -5.99 kcal/mol
solvation free energy, 298 K (in CCCCO): -6.08 kcal/mol
solvation free energy, 298 K (in CCCO): -6.06 kcal/mol
solvation free energy, 298 K (in CCO): -6.22 kcal/mol
solvation free energy, 298 K (in CO): -6.37 kcal/mol
solvation free energy, 298 K (in O): -1.88 kcal/mol

From the CombiSolv-Exp solvation set (Vermeire and Green 2021)
